Data published in PubChem BioAssay (NCI).
Several values for one entry are separate records, joined by “and”; a condition that tells them apart may be missing. Equal values may be shown once.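 Each compound was tested at five concentrations against cells in 96-well plates for 48 hours. The concentration for 50% growth inhibition is given as GI50. TGI is the concentration that stops growth completely.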

What was measured:
Assay in all cases: growth of human tumour cells (NCI), 48 h
[1] = test system: 786-0 renal
[2] = test system: COLO 205 colon
[3] = test system: EKVX NSCLC
[4] = test system: K-562 leukemia
[5] = test system: LOX IMVI melanoma
[6] = test system: M14 melanoma
[7] = test system: MOLT-4 leukemia
[8] = test system: SK-MEL-5 melanoma
[9] = test system: SW-620 colon
[10] = test system: MDA-MB-231 breast

For `O=[N+]([O-])c1cccc(/C=N\NS(=O)(=O)c2ccc(Cl)cc2)c1O`, the TGI [1] was > 100 µM, the TGI [2] was > 100 µM and the TGI [3] was > 100 µM. For the same molecule, the TGI [4] was > 100 µM, the TGI [5] was > 100 µM and the TGI [6] was > 100 µM. For the same molecule, the TGI [7] was > 100 µM, the TGI [8] was > 100 µM and the TGI [9] was > 100 µM.
With `COc1cc2c(cc1OCCCOc1cc3c(cc1OC)C(=O)N1C[C@H](F)C[C@H]1C=N3)N=C[C@@H]1C[C@@H](F)CN1C2=O` the GI50 [1] was 8.45 µM, the TGI [1] was 20.6 µM and the GI50 [2] was 14.4 µM. For the same molecule, the TGI [2] was 27.4 µM, the GI50 [3] was 18.7 µM and the TGI [3] was 35.5 µM. The GI50 [4] was 2.98 µM, the TGI [4] was 12.7 µM and the GI50 [5] was 2.41 µM. It also gave a TGI [5] of 10.5 µM, a GI50 [6] of 3.52 µM and a TGI [6] of 16.4 µM. It also gave a GI50 [10] of 16 µM, a TGI [10] of 31.3 µM and a GI50 [7] of 1.33 µM. It also gave a TGI [7] of 4.3 µM, a GI50 [9] of 4.2 µM and a TGI [9] of 20 µM.
`CC[C@@H]1OC2(C)CC(S(=O)(=O)c3ccccc3O)CC1O2` (some centres not stated) was tested, and the TGI [1] was > 100 µM, the TGI [2] was > 100 µM and the TGI [3] was > 100 µM. For the same molecule, the TGI [4] was > 100 µM, the TGI [6] was > 100 µM and the TGI [7] was > 100 µM. The TGI [8] was > 100 µM and the TGI [9] was > 100 µM.
For `COC(=O)c1s/c(=N\C(=S)N(C)C)n(-c2ccccc2)c1C(=O)OC`, the TGI [1] was > 100 µM, the TGI [2] was > 100 µM and the TGI [3] was > 100 µM. The TGI [4] was > 100 µM, the TGI [5] was > 100 µM and the TGI [6] was > 100 µM. The TGI [7] was > 100 µM, the TGI [8] was > 100 µM and the TGI [9] was > 100 µM.
With `Cc1c(NC(=O)C(C)(C)Br)c(=O)oc2c(C)c3occc(=O)c3cc12` the TGI [1] was > 100 µM, the TGI [2] was > 100 µM and the TGI [3] was > 100 µM. For the same molecule, the TGI [4] was > 100 µM, the TGI [5] was > 100 µM and the TGI [6] was > 100 µM. The TGI [7] was > 100 µM, the TGI [8] was > 100 µM and the TGI [9] was > 100 µM.
`O=C(Nc1cc(Cl)c(Cl)cc1Cl)C(=O)C1C=CCS1(=O)=O` (configuration not stated) was tested, and the TGI [1] was > 100 µM, the TGI [2] was > 100 µM and the TGI [3] was > 100 µM. For the same molecule, the TGI [4] was > 100 µM, the TGI [5] was > 100 µM and the TGI [6] was > 100 µM. The TGI [7] was > 100 µM, the TGI [8] was > 100 µM and the TGI [9] was > 100 µM.
With `COc1ccc(NC(=O)C(=O)C(C(=O)c2ccccc2)C2OC(=O)c3ccccc32)c([N+](=O)[O-])c1` (configuration not stated) the TGI [1] was > 100 µM, the TGI [2] was > 100 µM and the TGI [3] was > 100 µM. The TGI [4] was > 100 µM, the TGI [5] was > 100 µM and the TGI [6] was > 100 µM. The TGI [7] was > 100 µM, the TGI [8] was > 100 µM and the TGI [9] was > 100 µM.
In the case of `CC1C[C@@]2(c3ccccc3)C(=O)CCC[C@H]2N1` (some centres not stated), the TGI [1] is reported as > 100 µM, the TGI [3] is reported as > 100 µM and the TGI [4] is reported as > 100 µM. For the same molecule, the TGI [6] was > 100 µM, the TGI [7] was > 100 µM and the TGI [8] was > 100 µM. The TGI [9] was > 100 µM.
`CC1=C(C(=O)Nc2ccccc2C)C(c2ccc(Cl)c(Cl)c2)C(C(=O)Nc2ccccc2C)=C(C)N1` was tested, and the TGI [1] was 67.3 µM, the TGI [2] was 30 µM and the TGI [3] was > 100 µM. The TGI [4] was 79.8 µM, the TGI [5] was 37.5 µM and the TGI [6] was 35.3 µM. The TGI [7] was 48.8 µM, the TGI [8] was 31.8 µM and the TGI [9] was > 100 µM.
With `COc1cc(/C=C(\C#N)C(=O)c2ccccc2)ccc1OCc1ccccc1` the TGI [1] was > 100 µM, the TGI [2] was > 100 µM and the TGI [3] was > 100 µM. The TGI [4] was > 100 µM, the TGI [5] was > 100 µM and the TGI [6] was > 100 µM. For the same molecule, the TGI [7] was > 100 µM, the TGI [8] was > 100 µM and the TGI [9] was > 100 µM.
In the case of `CC(C)CS(=O)(=O)/C(=C(\c1ccc(Br)cc1)S(=O)(=O)CC(C)C)c1ccc(Br)cc1`, the TGI [1] is reported as > 100 µM, the TGI [2] is reported as > 100 µM and the TGI [3] is reported as > 100 µM. The TGI [4] was > 100 µM, the TGI [5] was > 100 µM and the TGI [6] was > 100 µM. For the same molecule, the TGI [7] was > 100 µM, the TGI [8] was 2.8 µM and the TGI [9] was > 100 µM.
`NC(=O)C(=Cc1ccc(C(O)P(=O)(O)O)cc1)C(N)=O` (configuration not stated) was tested, and the TGI [1] was > 100 µM, the TGI [2] was > 100 µM and the TGI [3] was > 100 µM. For the same molecule, the TGI [4] was > 100 µM, the TGI [5] was > 100 µM and the TGI [6] was > 100 µM. The TGI [7] was > 100 µM, the TGI [8] was > 100 µM and the TGI [9] was > 100 µM.
With `Cc1cc(Cl)ccc1NC(=O)CCCC(=O)C1CCCC1=O` (configuration not stated) the TGI [1] was > 100 µM, the TGI [2] was > 100 µM and the TGI [3] was > 100 µM. The TGI [4] was > 100 µM, the TGI [5] was > 100 µM and the TGI [6] was > 100 µM. For the same molecule, the TGI [7] was > 100 µM, the TGI [8] was > 100 µM and the TGI [9] was > 100 µM.
With `CCOC(=O)NC(=O)c1cn(CC(=O)NCC(=O)NCC(=O)NCCCN2CCN(CCCNC(=O)CNC(=O)CNC(=O)Cn3cc(C(=O)NC(=O)OCC)c(=O)[nH]c3=O)CC2)c(=O)[nH]c1=O` the TGI [1] was > 100 µM, the TGI [2] was > 100 µM and the TGI [4] was > 100 µM. The TGI [5] was > 100 µM, the TGI [6] was > 100 µM and the TGI [7] was > 100 µM. The TGI [8] was > 100 µM and the TGI [9] was > 100 µM.
`CCCCCCCCC[C@@H]1CC(=O)OCC2OC(O[C@H](CCCCCCCCC)CC(=O)OCC3OC(O[C@H](CCCCCCCCC)CC(=O)OCC4OC(O1)C(O)C(O)C4O)C(O)C(O)C3O)C(O)C(O)C2O` (some centres not stated) was tested, and the TGI [1] was 16.2 µM, the TGI [2] was 8.3 µM and the TGI [3] was 25.1 µM. It also gave a TGI [4] of 15.1 µM, a TGI [5] of 11.7 µM and a TGI [6] of 10.2 µM. It also gave a TGI [7] of 20.6 µM, a TGI [8] of 25.5 µM and a TGI [9] of 17.8 µM.
`Cc1[nH]c2ccccc2c1C1Cc2ccccc2N1C(=O)/C=C\C(=O)O` (configuration not stated) was tested, and the TGI [1] was > 100 µM, the TGI [2] was > 100 µM and the TGI [3] was > 100 µM. The TGI [4] was > 100 µM, the TGI [5] was 37.6 µM and the TGI [6] was > 100 µM. The TGI [7] was > 100 µM, the TGI [8] was 88.3 µM and the TGI [9] was > 100 µM.
For `COc1ccc([N+]2=NC(c3ccc([N+](=O)[O-])cc3)=NN(c3ccccc3)C2)cc1`, the TGI [1] was > 100 µM, the TGI [2] was > 100 µM and the TGI [3] was > 100 µM. For the same molecule, the TGI [4] was 97.3 µM and > 100 µM, the TGI [5] was > 100 µM and the TGI [7] was 74.4 µM and > 100 µM. The TGI [8] was 61.5 µM and 83.9 µM and the TGI [9] was > 100 µM.
`NNC(=O)/C(=C/c1ccc(Cl)c(Cl)c1)NC(=O)c1ccccc1` was tested, and the TGI [1] was > 100 µM, the TGI [2] was > 100 µM and the TGI [3] was > 100 µM. The TGI [5] was > 100 µM, the TGI [6] was > 100 µM and the TGI [7] was > 100 µM. The TGI [8] was > 100 µM and the TGI [9] was > 100 µM.
With `CCNC(=O)CCN(C(=O)O)S(=O)(=O)c1ccc(NC(=O)c2ccccc2)cc1` the TGI [1] was 28.3 µM, the TGI [2] was > 100 µM and the TGI [3] was > 100 µM. The TGI [4] was > 100 µM, the TGI [5] was 43.8 µM and the TGI [6] was > 100 µM. For the same molecule, the TGI [7] was > 100 µM, the TGI [8] was > 100 µM and the TGI [9] was 32 µM.
For `c1ccc2c(c1)CCC/C2=N\OCC1CO1` (configuration not stated), the TGI [1] was > 100 µM, the TGI [2] was > 100 µM and the TGI [3] was > 100 µM. For the same molecule, the TGI [4] was > 100 µM, the TGI [5] was > 100 µM and the TGI [6] was > 100 µM. The TGI [7] was > 100 µM, the TGI [8] was > 100 µM and the TGI [9] was > 100 µM.
`CC(=O)Nc1ccc(C(=O)NN2C(=O)C(Cl)C2c2ccc(Cl)cc2)cc1` (configuration not stated) was tested, and the TGI [1] was 40.3 µM, the TGI [2] was > 100 µM and the TGI [3] was > 100 µM. The TGI [4] was > 100 µM, the TGI [6] was > 100 µM and the TGI [10] was 70.3 µM. The TGI [7] was > 100 µM, the TGI [8] was > 100 µM and the TGI [9] was > 100 µM.
